Experimental data taken from patent publication EP0115690A1, “Dibenzocycloheptenylidenes” (AMERICAN HOME PRODUCTS CORPORATION, priority 1983, dated 1984).

How the values were obtained:
[1] = test system: carrageenan paw edema; test: rat carrageenan edema test (hind paw); type: in vivo, male Sprague-Dawley rats; details: for % Change From Control: paw edema 3 hours after carrageenan; for ED50: Rattus norvegicus, po, 3 h, read-out: dose exhibiting a 50% inhibition of edema
Procedure: Groups of 6-8 male Sprague-Dawley rats weighing between 150-200 grams are used. Compounds of the invention, aspirin and indomethacin are administered orally in 0.5% methylcellulose. Vehicle alone is administered as a control. Sixty minutes after drug administration edema is induced by injection of 0.1 ml. of a 1% carrageenan solution in saline into the subplantar tissue of the rat's right hind paw. Two minutes later, paw volume is measured volumetrically with a plethysmograph and again 3 hours later. The mean volume of swelling for the control group is calculated and compared to the test groups. Percent change in paw edema is calculated and analysed statistically (unpaired, Student's t-test).

[2] = test system: adjuvant arthritis (left paw edema); test: rat adjuvant arthritis (daily dosing) assay; type: in vivo, Sprague-Dawley rats; details: for % Change of Left Paw Edema at Day 16: daily regimen; for ED50: Rattus norvegicus, po, 384 h, read-out: estimated ED50
Procedure: The ability of the compounds of the invention to inhibit immunologic-induced (chronic) inflammation is tested in adjuvant arthritis (daily dosing) assay.
Polyarthritis is induced in groups of 6-10 Sprague-Dawley rats weighing between 180-220 g. by a subcutaneous injection into the right paw of dessicated Mycobacterium butyricum or tuberculosis (0.5 mg/0.1 ml) suspended in light mineral oil. Compounds of the invention, aspirin and indomethacin are administered orally in 0.5% methylcellulose using a daily regimen (except for weekends). Both hind paw volumes (ml.) are measured by mercury plethysmograph on day 0 or at the time of injection of the complete adjuvant. Increases in paw volume (viz. edema) are determined for the left paw on day 16. Statistical analysis of differences in paw edemas is performed by using the unpaired, Student's t-test.

[3] = anti-inflammatory activity, comparison of isomers (test not specified); type: in vivo; details: E-isomer versus Z-isomer

O=C(O)C=C1c2ccccc2C=C(Br)c2ccccc21 [Example 8, E- and Z-(10-bromo-5H-dibenzo[a,d]cyclohepten-5-ylidene) acetic acid]
% Change From Control ([1]; oral dose 200 mg/kg): -34%
% Change of Left Paw Edema at Day 16 ([2]; oral dose 25-50 mg/kg): -25 to -50%

COc1ccc2c(c1)C(=CC(=O)O)c1ccccc1C=C2 [Example 4F, (3-Methoxy-5H-dibenzo[a,d]cyclohepten-5-ylidene)acetic acid]
% Change From Control ([1]; oral dose >200 mg/kg): -50%
% Change of Left Paw Edema at Day 16 ([2]; oral dose 15 mg/kg): -50%

CC(=O)Oc1ccccc1C(=O)O [aspirin, reference compound]
ED50 [1]: ~250 mg/kg
ED50 [2]: ~140 mg/kg

O=C(O)C(Cl)=C1c2ccccc2C=Cc2ccccc21 [Example 6E]
% Change From Control ([1]; oral dose 200 mg/kg): -31%

O=C(O)/C=C1/c2ccccc2C=Cc2cc(Cl)ccc21 [Example 2G]
% Change From Control ([1]; oral dose 200 mg/kg): ~-38%

O=C(O)/C=C1/c2ccccc2C=Cc2ccc(Cl)cc21 [Example 1G, Z-(3-Chloro-5H-dibenzo[a,d]cyclohepten-5-ylidene) acetic acid]
% Change From Control ([1]; oral dose 100-200 mg/kg): -20%
% Change of Left Paw Edema at Day 16 ([2]; oral dose 25 mg/kg): -28%

O=C(O)/C=C1\c2ccccc2C=Cc2ccc(Cl)cc21 [Example 1H]
oral doses that inhibit carrageenan paw edema [1]: 20 to 200 mg/kg
% Change From Control ([1]; oral dose 20 mg/kg): -33%
% Change From Control ([1]; oral dose 60 mg/kg): -53%
% Change From Control ([1]; oral dose 180 mg/kg): -68%
% Change of Left Paw Edema at Day 16 ([2]; oral dose 25 mg/kg): -59%
anti-inflammatory activity relative to its Z-isomer [3]: several times more active

C1=Cc2ccccc2C(=Cc2nnn[nH]2)c2ccccc21 [Example 7B, 5-(5H-Dibenzo[a,d]cyclohepten-5-ylidenemethyl) 1H-tetrazole]
% Change From Control ([1]; oral dose 200 mg/kg): ~-38%

O=C(O)/C=C1\c2ccccc2C=Cc2cc(Cl)ccc21 [Example 2H]
% Change From Control ([1]; oral dose 200 mg/kg): -49%
% Change of Left Paw Edema at Day 16 ([2]; oral dose 25 mg/kg): -59%

COc1ccc2c(c1)c(CC(=O)O)c(C)n2C(=O)c1ccc(Cl)cc1 [Indomethacin, reference compound]
ED50 [1]: ~5.6 mg/kg
ED50 [2]: 0.9 mg/kg

O=C(O)C=C1c2ccccc2C=Cc2ccc(F)cc21 [Example 9]
oral doses that inhibit carrageenan paw edema [1]: 20 to 200 mg/kg
% Change From Control ([1]; oral dose 200 mg/kg): -58%
% Change of Left Paw Edema at Day 16 ([2]; oral dose 100-200 mg/kg): -40%
